We go through 17 compounds from patent US5776962A, “Lactone compounds for treating patient with precancerous lesions” (priority 1995, dated 1998).

For series [1], the system named is HT-29 human colonic adenocarcinoma cells. Briefly: Sulforhodamine B Assay, tumor cell growth inhibition, HT-29. Particulars: for SELECTIVITY INDEX (HT-29 IC50 / PGE2 IC50): ratio of HT-29 IC50 to PGE2 IC50. It is filed as cell-based. How it is done:
The compounds of this invention were assayed for their effect on various cell lines representative of precancerous lesions to ascertain the degree of tumor growth inhibition following treatment with compounds of this invention. The cell lines employed for these experiments were well characterized, and are used by the United States National Cancer Institute in their screening program for new anti-cancer drugs. Growth inhibition of this cell line is thought to be indicative of a benefit on precancerous lesions and neoplasms.
Tumor cell cytotoxicity was assessed using the Sulforhodamine B Assay. In this assay, tumor cells were plated in 96-well plates and treated with drug-containing media for seven days (continuous exposure). At the end of the exposure period, the cells were fixed and stained with sulforhodamine B (a pink fluorescent dye). The dye was then solubilized, and the optical density of the resulting pink solution determined on a 96-well plate reader. The mean dye intensity of the treated wells was then divided by the mean dye intensity in the control wells (6 wells of each) to determine the effect of the drug on the cells. Dye intensity is proportional to the number of cells or amount of protein per well. The resultant "percent of control" value then represents the degree of growth inhibition caused by the drug.
For each experiment, an IC50 value was determined and used for comparative purposes. This value is equivalent to the concentration of drug needed to inhibit tumor cell growth by 50%. IC50 values were obtained graphically by connecting the mean values for each drug concentration tested. Each experiment included at least six wells per drug concentration. Concentration was plotted on a log scale on the X-axis.

For series [2], the system named is prostaglandin E2 (PGE2) production by differentiated HL-60 cells (anti-PG synthetase activity). Briefly: Inhibition of prostaglandin E2 (PGE2) production in differentiated HL-60 cells after A23187 stimulation (EIA). It is filed as cell-based, human. Conditions: for IC50: Table III, differentiated HL-60, A23187 (5×10^-6 M) stimulation, read-out: (Anti-PG Synthetase activity) PGE2 I.C.50. The procedure:
Compounds of this invention, as well as several others (see Table II below), were evaluated to determine whether they inhibited the production of prostaglandin E2 (PGE2), according to the procedure below. […] Secreted […] is measured using an enzyme immunoassay (EIA) kit.
Specifically, HL-60 is a human promyelocytic cell line which may be differentiated in mature granulocytes in the presence of compounds such as dimethyl sulfoxide (DMSO). These cells are obtained from the American Type Culture Collection (ATCC:CCL240).
The differentiated HL-60 cells (3×10^6 cells/ml) are incubated for 15 min at 37° C. in the presence of the compounds listed in Table II at the desired concentration. Cells are then stimulated by A23187 (5×10^-6 M) for 15 min. Secreted PGE2 into the external medium is measured by EIA using a commercially available EIA kit.
The quantity of PGE2 secreted is expressed in ng/10^6 cells using a standard curve. Data are converted using a curve fitting of the four parameter logistic equation: [formula] […] The IC50 values are determined using Hill equation.

For a further series, the system named is prostaglandin synthesis. Particulars: background; cited from earlier work.
For series [3] the following is noted: background; prophylactic use / conventional NSAIDs; cited from earlier work.
For the next series, the system named is polyps. Particulars: patients; background; cited from earlier work.
The conditions of series [4]: background; cited from earlier work.
The mark [5] stands for this setting: Homo sapiens, Table II, cell line HT-29, read-out: IC50.
Where [6] appears, read: Homo sapiens, Table III, HT-29, read-out: (Anti-proliferative activity) HT-29 I.C.50.
Setting [7] is: Table II, cell line HT-29, read-out: IC50.
The mark [8] stands for this setting: Table III, HT-29, read-out: (Anti-proliferative activity) HT-29 I.C.50.

Entries after “also recorded” stand apart in the source; their conditions may differ. Read-outs that look alike come from different tables or passages of the source.

Turning to `CC12OC(=O)CC1(SC[C@H](N)C(=O)O)c1cc(F)ccc1/C2=C\c1ccc(S(C)(=O)=O)cc1` (mixture of isomers) [Example 32, rac-threo-(E)-1-(butan-1',4'-olido)-[3',4':1,2]-6-fluoro-2-methyl-3-(p-methylsulfonylbenzylidene)-1S-indanyl-L-cysteine], the IC50 in series [1] (setting [5]) was 2.1 µM.

With `CC(=O)N[C@@H](CSC12CC(=O)OC1(C)/C(=C/c1ccc(S(C)(=O)=O)cc1)c1ccc(F)cc12)C(=O)O` (mixture of isomers) [Example 33, rac-threo-(E)-1-(butan-1',4'-olido)-[3',4':1,2]-6-fluoro-2-methyl-3-(p-methylsulfonylbenzylidene)-1S-indanyl-N-acetylcysteine], the IC50 in series [1] (setting [5]) was 30 µM.

Consider `CC12OC(=O)C=C1c1cc(F)ccc1/C2=C\c1ccc(S(C)(=O)=O)cc1` (racemic) [Example 3, rac-(E)-1-(2'-Buten-1',4'-olido)-[3',4':1,2]-6-fluoro-2-methyl-3-(p-methylsulfonylbenzylidene)-indan], for which, in series [1], the “anti-proliferative activity (in words)” value is “outstanding anti-proliferative activity”. Also, in series [2], the “anti-PG-synthetase / anti-prostaglandin activity (in words)” value is on record as “essentially lacking anti-prostaglandin activity at therapeutic concentrations”.

`CC12OC(=O)CC1(O)c1cc(F)ccc1/C2=C\c1ccc(S(C)(=O)=O)cc1` (racemic) [Example 11, rac-threo-(E)-1-Hydroxy-1-(butan-1',4'-olido)-[3',4':1,2]-6-fluoro-2-methyl-3-(p-methylsulfonylbenzylidene)-indan]: the IC50 in series [1] (Homo sapiens, Table II, cell line HT-29 p 135, read-out: IC50) was 100 µM.

With `CCN(CC)CCSC12CC(=O)OC1(C)/C(=C/c1ccc(S(C)(=O)=O)cc1)c1ccc(F)cc12` (racemic) [Example 12, rac-threo-(E)-1-(N,N'-diethylaminoethanethio)-1-(butan-1',4'-olido)-[3',4':1,2]-6-fluoro-2-methyl-3-(p-methylsulfonylbenzylidene)-indan], the IC50 in series [1] (setting [6]) is 0.43 µM; in series [2] (Homo sapiens), over 100 µM. The “SELECTIVITY INDEX (HT-29 IC50 / PGE2 IC50)” value in series [1] (Table III) is under 0.0043.

Take `CC12OC(=O)CC1(C#N)c1cc(F)ccc1/C2=C\c1ccc(S(C)(=O)=O)cc1` (racemic) [Example 13, rac-threo-(E)-1-Cyano-1-(butan-1',4'-olido)-[3',4':1,2]-6-fluoro-2-methyl-3-(p-methylsulfonylbenzylidene)-indan]: in series [1] (Homo sapiens, Table II, cell line HT-29 p 136 (?), read-out: IC50), the IC50 is over 50 µM.

For `CC12OC(=O)C=C1c1cc(F)ccc1/C2=C\c1ccccc1` (racemic) [Example 27, rac-(E)-1-(2'-buten-1',4'-olido)-[3',4':1,2]-6-fluoro-2-methyl-3-benzylidene-indan], the IC50 in series [1] (setting [5]) was 0.34 µM.

For the compound `COc1cc(/C=C2\c3ccc(F)cc3C3=CC(=O)OC32C)cc(OC)c1OC` (racemic) [Example 28, rac-(E)-1-(2'-buten-1',4'-olido)-[3',4':1,2]-6-fluoro-2-methyl-3-(3,4,5-trimethoxybenzylidene)-indan], the IC50 in series [1] (setting [5]) was 0.28 µM.

`COc1ccc2c(c1)C1=CC(=O)OC1(C)N2C(=O)c1ccc(Cl)cc1` (racemic) [Example 36, rac-3-(2'-Buten-1',4'-olido)-[3',4':3,2]-1-(4-chlorobenzoyl)-5-methoxy-2-methyl-2,3-dihydroindole]: the figures for the IC50 in series [1] (setting [5]), in series [1] (setting [6]) and in series [2] (Homo sapiens) were 2 µM, 2 µM and 0.08 µM, respectively. In addition, the “SELECTIVITY INDEX (HT-29 IC50 / PGE2 IC50)” value in series [1] (Table III) was 25.

For the compound `C[C@@]12OC(=O)C[C@]1(SCC(=O)O)c1cc(F)ccc1/C2=C\c1ccc(S(C)(=O)=O)cc1` (relative stereo) [Example 31, rac-threo-(E)-1-(butan-1',4'-olido)-[3',4':1,2]-6-fluoro-2-methyl-3-(p-methylsulfonylbenzylidene)-1S-indanyl-mercaptoacetic acid], in series [1] (setting [5]), the IC50 was determined as 50 µM.

`CCN(CC)CCS[C@]12CC(=O)O[C@@]1(C)N(C(=O)c1ccc(Cl)cc1)c1ccc(OC)cc12` (relative stereo) [Example 37, rac-threo-3-(Butan-1',4'-olido)-[3',4':3,2]-3-(N,N'-diethylaminoethanethio)-1-(4-chlorobenzoyl)-5-methoxy-2-methyl-2,3-dihydroindole]: the IC50 in series [1] (setting [5]) amounted to 29 µM.

As for `CC1=C(CC(=O)O)c2cc(F)ccc2/C1=C\c1ccc(S(C)(=O)=O)cc1` [Sulfone, reference compound], in series [1] (Table III), the “SELECTIVITY INDEX (HT-29 IC50 / PGE2 IC50)” value was 1.19. In addition, the “inhibition of prostaglandin synthesis (in words)” value with prostaglandin synthesis is “inactive as an inhibitor of prostaglandin synthesis”.

As to `CSc1ccc(/C=C2/C(C)=C(CC(=O)O)c3cc(F)ccc32)cc1` [Sulindac Sulfide, reference compound], in series [1], the “anti-proliferative activity (in words)” value is given as “good anti-proliferative activity”. Further, the “inhibition of prostaglandin synthesis (in words)” value in the series with prostaglandin synthesis is “active moiety as a prostaglandin inhibitor”. The “anti-PG-synthetase / anti-prostaglandin activity (in words)” value in series [2] is given as “high degree of anti-PG-synthetase activity”. Further, the inhibition at 10 µM in series [2] (Homo sapiens, HL-60, read-out: inhibit PGE2 production) was 100%. The “side effects (in words)” value in series [3] is given as “associated with the side effects of conventional NSAIDs”.

In the case of `CC1=C(CC(=O)O)c2cc(F)ccc2/C1=C\c1ccc([S+](C)[O-])cc1` (centres unmarked) [Sulindac], in the series with polyps, the “effect on polyps (in words)” value is “Polyps virtually disappear”. Further, in series [4], the “metabolism (in words)” value is “converted by liver enzymes to the corresponding sulfide; also recorded: metabolized to sulfone compound”.

Take “rac-ribo-(E)-1-Triazolo-[2',3':1",3"]-1-(butan-1',4'-olido)-[3',4':1,2]-6-fluoro-2-methyl-3-(methylsulfonylbenzylidene)-indan [Example 29]”: the IC50 in series [1] (setting [7]) was determined as 2.4 µM; in series [1] (setting [8]), 2.4 µM; in series [2], 1.5 µM. Also, the “SELECTIVITY INDEX (HT-29 IC50 / PGE2 IC50)” value in series [1] (Table III) came to 1.6.

On to “rac-threo-(E)-1-(butan-1',4'-olido)-[3',4':1,2]-6-fluoro-2-methyl-3-(p-methylsulfonylbenzylidene)-1S-indanyl-glutathione [Example 34]”, for which the values for the IC50 in series [1] (setting [7]), in series [1] (setting [8]) and in series [2] were 3.6 µM, 3.6 µM and over 100 µM, respectively. The “SELECTIVITY INDEX (HT-29 IC50 / PGE2 IC50)” value in series [1] (Table III) is given as under 0.036.

In the case of “rac-threo-(E)-1-N,N-Diethylamino-1-(butan-1',4'-olido)-[3',4':1,2]-6-fluoro-2-methyl-3-(p-methylsulfonylbenzylidene)-indan [Example 30]”, the IC50 is 0.35 µM in series [1] (setting [7]), 0.35 µM in series [1] (setting [8]) and over 100 µM in series [2]. Further, in series [1] (Table III), the “SELECTIVITY INDEX (HT-29 IC50 / PGE2 IC50)” value is under 0.0035.
